Measured values as given in patent publication US11179471B2, “Peptide for cytosolic delivery” (priority 2017, dated 2021).
Residues, ends and D or L forms follow the SMILES beside them.

Columns and labels:
[1] = tested on: HeLa cells transfected with a plasmid encoding loxP-DsRed-loxP-EGFP; experiment: Genetic recombination assay by intracellular delivery of Cre protein (EGFP expression); type: cell-based
Experimental: HeLa cells transfected with a plasmid encoding loxP-DsRed-loxP-EGFP, which were prepared in the same manner as in the Examples of PTL 2, were incubated with His-tag fusion Cre (Cre-Hiss) (10 μM) in the presence of HAad, HA/E2, or L17E (40 μM each) for 1 hour. This system was designed to express EGFP when intracellular release of Cre protein induces genetic recombination. […] The proportions of GFP-expressing cells in the cells treated with HAad, HA/E2, and L17E were 41%, 36%, and 30%, respectively. Considering the fact that the EGFP expression efficiency achieved with no administration of a release peptide was 9%, peptide administration of HAad, HA/E2, and L17E can be considered to increase genetic recombination by 32%, 27%, and […], respectively, as compared with no peptide administration.

[2] = tested on: mitochondrial membrane of HeLa cells; settings: HeLa; 40 μM, 1 hour in α-MEM(−); Lipofectamine LTX/pCI complex overnight in α-MEM(+)
Text: Mitochondrial membranes are considered to be rich in acidic lipid, as compared with cell membranes. Accordingly, the effects of the above peptides on a mitochondrial membrane were examined by JC-1 assay. A JC-1 reagent emits red (J-aggregate) fluorescence when the mitochondrial membrane is kept normal and the membrane potential is maintained; and the JC-1 reagent emits green (J-monomer) fluorescence when the mitochondrial membrane is damaged and the membrane potential is not kept normal. After HeLa cells were incubated with HAad, HA/E2, or L17E (40 μM) in α-MEM(−) for 1 hour, JC-1 assay was performed. The percentage of cells that emitted red fluorescence was assayed by flow cytometry.

NIH3T3 cells = experiment: Intracellular release of dextran (10 kDa) in NIH3T3 cells; type: cell-based
Experimental: Intracellular release of dextran is more difficult in NIH3T3 cells than in HeLa cells. NIH3T3 cells and dextran (10 kDa) were incubated in the presence of HAad, HA/E2, or L17E (40 μM each) in DEME(−) medium for 1 hour in the same manner as in Example 6.

RAW 264.7 cells = experiment: Cell-killing assay by intracellular delivery of toxin protein saporin (WST-8); type: cell-based; settings: saporin 10 μg/mL, 40 μM
Experimental: Saporin is known as a cytotoxin that kills cancer cells by its intracellular delivery. RAW 264.7 cells and saporin (10 μg/mL) were incubated in the presence of HAad, HA/E2, or L17E (40 μM each) in α-MEM(−) medium for 1 hour. After the cells were then washed and the medium was replaced with DMEM(+), the cells were further incubated for 6 hours. The cell viability (%) was assayed by WST-8 assay (FIG. 10).

CC[C@H](C)[C@H](N)C(=O)N[C@@H](Cc1c[nH]c2ccccc12)C(=O)N[C@@H](CC(C)C)C(=O)N[C@H](C(=O)N[C@@H](C)C(=O)N[C@@H](CC(C)C)C(=O)N[C@@H](CCCCN)C(=O)N[C@@H](Cc1ccccc1)C(=O)N[C@@H](CC(C)C)C(=O)NCC(=O)N[C@@H](CCCCN)C(=O)N[C@@H](C)C(=O)N[C@@H](C)C(=O)N[C@@H](C)C(=O)N[C@@H](CCCCN)C(=O)N[C@@H](C)C(=O)N[C@@H](CCCC(=O)O)C(=O)N[C@@H](C)C(=O)N[C@@H](CCCCN)C(=O)N[C@@H](CCC(N)=O)C(=O)N[C@@H](CCCC(=O)O)C(=O)N[C@@H](CC(C)C)C(=O)N[C@@H](CO)C(=O)N[C@@H](CCCCN)C(=O)N[C@@H](CC(C)C)C(N)=O)[C@@H](C)O [HAad, H-IWLTALKFLGKAAAKAXAKQXLSKL-amide] (HELM PEPTIDE1{I.W.L.T.A.L.K.F.L.G.K.A.A.A.K.A.[O=C(O)CCC[C@H](N[*:1])C(=O)[*:2]].A.K.Q.[O=C(O)CCC[C@H](N[*:1])C(=O)[*:2]].L.S.K.L.[am]}$$$$V2.0)
proportion of GFP-expressing cells ([1]; Cre-His6 10 μM, peptide 40 μM, 1 hour, then 24 hours in α-MEM(+)): 41%
increase of genetic recombination as compared with no peptide administration ([1]; EGFP expression with no release peptide was 9%): 32%
effect on mitochondrial membrane (cells emitting red JC-1 fluorescence), in words [2]: no significant difference from the untreated case
intracellular release of dextran relative to L17E (NIH3T3 cells; 40 μM): twice
cells in which intracellular release of dextran was observed (NIH3T3 cells; peptide 40 μM, dextran (10 kDa), DEME(−) medium 1 hour): about 35%
cell viability relative to that in the presence of L17E (RAW 264.7 cells): ¼
